Assays:
[1] = molecular target: Receptor tyrosine-protein kinase erbB-2 (Homo sapiens, UniProt P04626); test: biochemical; type: cell-based, Insect cells;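 also: inhibition of HER2 kinase enzyme activity, measured with Poly(Glu:Tyr) as the phosphorylation substrate; in other assays of this panel Not Active means under 50% inhibition at 10 µM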
[2] = molecular target: Voltage-gated inwardly rectifying potassium channel KCNH2 (Homo sapiens, UniProt Q12809); conditions: hek293; also: in other assays of this panel Not Active means under 50% inhibition at 10 µM
[3] = molecular target: T1, Neuropeptide Y receptor type 1 (Homo sapiens, UniProt P25929); type: cell membranes, Membrane; conditions: sk-n-mc; also: in other assays of this panel Not Active means under 50% inhibition at 10 µM
T1 sequence (P25929 whole entry): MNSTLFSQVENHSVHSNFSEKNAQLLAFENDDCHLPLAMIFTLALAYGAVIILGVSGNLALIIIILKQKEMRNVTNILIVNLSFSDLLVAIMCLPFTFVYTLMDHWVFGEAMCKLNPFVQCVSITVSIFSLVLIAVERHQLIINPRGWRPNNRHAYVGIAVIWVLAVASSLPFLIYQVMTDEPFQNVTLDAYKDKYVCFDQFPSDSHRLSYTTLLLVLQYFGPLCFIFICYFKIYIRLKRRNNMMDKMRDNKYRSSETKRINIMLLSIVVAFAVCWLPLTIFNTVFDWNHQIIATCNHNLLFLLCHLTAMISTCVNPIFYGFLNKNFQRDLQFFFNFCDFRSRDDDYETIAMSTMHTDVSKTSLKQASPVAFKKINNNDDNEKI

[4] = DRUGMATRIX: Sigma2 radioligand binding (ligand: [3H] Ifenprodil); type: cell membranes, Rattus norvegicus, Wistar, Brain, Membrane; conditions: Not Active = under 50% inhibition at 10 µM
Insulin receptor = Insulin receptor (Rattus norvegicus, UniProt P15127); type: cell membranes, Wistar, Liver, Membrane; also: in other assays of this panel Not Active means under 50% inhibition at 10 µM
[5] = molecular target: Epidermal growth factor receptor (Homo sapiens, UniProt P00533); test: DRUGMATRIX: Protein Tyrosine Kinase, EGF Receptor enzyme inhibition (substrate: Poly(Glu:Tyr)); type: cell-based, Insect cells; conditions: insect cells; Not Active = under 50% inhibition at 10 µM
Caspase-1 = molecular target: T2, Caspase-1 (Homo sapiens, UniProt P29466); design: species or system Escherichia coli
T2 sequence (P29466 whole entry): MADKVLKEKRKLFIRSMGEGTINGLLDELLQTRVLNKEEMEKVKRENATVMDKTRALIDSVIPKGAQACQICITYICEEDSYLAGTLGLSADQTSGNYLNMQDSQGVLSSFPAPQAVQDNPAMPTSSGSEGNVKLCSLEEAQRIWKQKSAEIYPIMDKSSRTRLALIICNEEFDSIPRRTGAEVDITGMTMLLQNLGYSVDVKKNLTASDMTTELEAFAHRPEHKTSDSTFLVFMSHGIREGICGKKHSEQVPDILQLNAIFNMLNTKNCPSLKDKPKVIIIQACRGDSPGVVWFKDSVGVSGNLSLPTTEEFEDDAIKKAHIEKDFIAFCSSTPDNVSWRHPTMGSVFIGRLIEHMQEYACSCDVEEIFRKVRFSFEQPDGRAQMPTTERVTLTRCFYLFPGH

[6] = molecular target: Platelet-activating factor receptor (Homo sapiens, UniProt P25105); type: tissue-based; also: in other assays of this panel Not Active means under 50% inhibition at 10 µM
Platelet-activating factor receptor, sequence (P25105 whole entry): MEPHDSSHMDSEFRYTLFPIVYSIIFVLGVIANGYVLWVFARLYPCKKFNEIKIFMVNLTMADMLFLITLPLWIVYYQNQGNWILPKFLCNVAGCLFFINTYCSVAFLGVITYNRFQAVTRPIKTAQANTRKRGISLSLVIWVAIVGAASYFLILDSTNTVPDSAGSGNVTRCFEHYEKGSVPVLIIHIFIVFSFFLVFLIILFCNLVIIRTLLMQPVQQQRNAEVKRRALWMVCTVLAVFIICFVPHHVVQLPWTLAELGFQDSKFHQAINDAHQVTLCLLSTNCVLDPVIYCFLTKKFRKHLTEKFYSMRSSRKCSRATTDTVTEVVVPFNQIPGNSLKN

Receptor tyrosine-protein kinase erbB-2, sequence (P04626 whole entry): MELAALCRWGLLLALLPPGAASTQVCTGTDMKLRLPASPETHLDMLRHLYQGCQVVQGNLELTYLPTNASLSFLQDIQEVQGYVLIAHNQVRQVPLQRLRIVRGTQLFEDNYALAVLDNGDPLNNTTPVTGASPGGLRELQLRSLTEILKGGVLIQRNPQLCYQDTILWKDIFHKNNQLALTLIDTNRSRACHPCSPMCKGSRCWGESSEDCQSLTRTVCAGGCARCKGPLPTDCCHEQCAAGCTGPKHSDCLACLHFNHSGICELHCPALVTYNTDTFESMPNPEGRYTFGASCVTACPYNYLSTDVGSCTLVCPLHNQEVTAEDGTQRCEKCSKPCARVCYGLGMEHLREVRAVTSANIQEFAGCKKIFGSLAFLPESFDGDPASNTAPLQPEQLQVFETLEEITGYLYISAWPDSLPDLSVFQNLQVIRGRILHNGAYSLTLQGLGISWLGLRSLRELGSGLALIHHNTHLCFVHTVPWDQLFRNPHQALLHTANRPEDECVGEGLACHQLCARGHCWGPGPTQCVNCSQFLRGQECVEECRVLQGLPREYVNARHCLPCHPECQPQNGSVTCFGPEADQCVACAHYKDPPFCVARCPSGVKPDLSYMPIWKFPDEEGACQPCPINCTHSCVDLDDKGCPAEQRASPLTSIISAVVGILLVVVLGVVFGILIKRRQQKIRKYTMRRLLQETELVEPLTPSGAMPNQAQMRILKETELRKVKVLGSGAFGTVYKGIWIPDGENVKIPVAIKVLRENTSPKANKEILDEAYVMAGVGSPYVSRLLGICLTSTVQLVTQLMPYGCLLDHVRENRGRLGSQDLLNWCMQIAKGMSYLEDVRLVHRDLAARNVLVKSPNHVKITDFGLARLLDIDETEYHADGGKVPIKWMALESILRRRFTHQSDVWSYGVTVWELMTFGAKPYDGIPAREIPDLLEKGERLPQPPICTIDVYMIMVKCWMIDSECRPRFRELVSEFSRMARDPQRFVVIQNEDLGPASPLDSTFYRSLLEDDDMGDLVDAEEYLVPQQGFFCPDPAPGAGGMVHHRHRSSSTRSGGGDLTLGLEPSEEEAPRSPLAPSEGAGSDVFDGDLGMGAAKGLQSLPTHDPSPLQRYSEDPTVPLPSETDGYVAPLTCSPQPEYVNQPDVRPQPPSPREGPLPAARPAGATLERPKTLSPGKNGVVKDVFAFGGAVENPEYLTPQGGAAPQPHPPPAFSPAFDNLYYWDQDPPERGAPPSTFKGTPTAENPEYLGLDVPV
Insulin receptor, sequence (P15127 27-759 limits assumed): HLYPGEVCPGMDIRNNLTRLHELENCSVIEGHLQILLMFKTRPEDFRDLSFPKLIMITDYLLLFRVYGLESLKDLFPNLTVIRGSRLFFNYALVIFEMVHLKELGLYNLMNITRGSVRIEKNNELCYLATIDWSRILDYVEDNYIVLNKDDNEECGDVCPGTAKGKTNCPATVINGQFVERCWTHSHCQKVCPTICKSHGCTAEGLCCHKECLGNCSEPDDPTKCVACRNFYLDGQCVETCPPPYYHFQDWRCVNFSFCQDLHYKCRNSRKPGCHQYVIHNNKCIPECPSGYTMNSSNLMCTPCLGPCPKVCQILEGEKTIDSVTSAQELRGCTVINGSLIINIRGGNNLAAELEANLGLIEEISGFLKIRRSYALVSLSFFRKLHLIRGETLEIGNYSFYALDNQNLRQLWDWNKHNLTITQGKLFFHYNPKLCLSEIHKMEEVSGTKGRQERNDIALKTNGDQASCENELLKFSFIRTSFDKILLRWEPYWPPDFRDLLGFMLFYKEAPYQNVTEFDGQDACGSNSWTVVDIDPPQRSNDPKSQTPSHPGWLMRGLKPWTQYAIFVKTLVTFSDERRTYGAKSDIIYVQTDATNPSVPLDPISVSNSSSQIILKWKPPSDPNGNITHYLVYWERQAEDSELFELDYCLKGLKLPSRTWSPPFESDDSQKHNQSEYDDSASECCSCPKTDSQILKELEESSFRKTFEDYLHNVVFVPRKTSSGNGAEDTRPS
Insulin receptor, sequence (P15127 764-1383 limits assumed): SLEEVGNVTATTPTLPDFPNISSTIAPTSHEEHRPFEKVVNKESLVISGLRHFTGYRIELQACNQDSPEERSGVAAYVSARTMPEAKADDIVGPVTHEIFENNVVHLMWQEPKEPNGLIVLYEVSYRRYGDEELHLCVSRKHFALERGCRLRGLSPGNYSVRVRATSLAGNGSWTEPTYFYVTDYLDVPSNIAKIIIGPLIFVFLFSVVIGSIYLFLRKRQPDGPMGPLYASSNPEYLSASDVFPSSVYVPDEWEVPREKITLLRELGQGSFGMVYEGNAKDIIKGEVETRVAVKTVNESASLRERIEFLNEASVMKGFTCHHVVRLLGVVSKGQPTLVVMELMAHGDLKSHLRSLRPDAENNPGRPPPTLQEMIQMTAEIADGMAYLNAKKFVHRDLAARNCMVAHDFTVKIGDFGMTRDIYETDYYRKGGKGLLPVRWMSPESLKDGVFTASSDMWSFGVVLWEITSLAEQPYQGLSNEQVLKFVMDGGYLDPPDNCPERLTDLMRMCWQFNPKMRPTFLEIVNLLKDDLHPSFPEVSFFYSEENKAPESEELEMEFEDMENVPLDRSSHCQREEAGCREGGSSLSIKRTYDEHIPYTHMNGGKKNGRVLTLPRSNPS
Epidermal growth factor receptor, sequence (P00533 whole entry): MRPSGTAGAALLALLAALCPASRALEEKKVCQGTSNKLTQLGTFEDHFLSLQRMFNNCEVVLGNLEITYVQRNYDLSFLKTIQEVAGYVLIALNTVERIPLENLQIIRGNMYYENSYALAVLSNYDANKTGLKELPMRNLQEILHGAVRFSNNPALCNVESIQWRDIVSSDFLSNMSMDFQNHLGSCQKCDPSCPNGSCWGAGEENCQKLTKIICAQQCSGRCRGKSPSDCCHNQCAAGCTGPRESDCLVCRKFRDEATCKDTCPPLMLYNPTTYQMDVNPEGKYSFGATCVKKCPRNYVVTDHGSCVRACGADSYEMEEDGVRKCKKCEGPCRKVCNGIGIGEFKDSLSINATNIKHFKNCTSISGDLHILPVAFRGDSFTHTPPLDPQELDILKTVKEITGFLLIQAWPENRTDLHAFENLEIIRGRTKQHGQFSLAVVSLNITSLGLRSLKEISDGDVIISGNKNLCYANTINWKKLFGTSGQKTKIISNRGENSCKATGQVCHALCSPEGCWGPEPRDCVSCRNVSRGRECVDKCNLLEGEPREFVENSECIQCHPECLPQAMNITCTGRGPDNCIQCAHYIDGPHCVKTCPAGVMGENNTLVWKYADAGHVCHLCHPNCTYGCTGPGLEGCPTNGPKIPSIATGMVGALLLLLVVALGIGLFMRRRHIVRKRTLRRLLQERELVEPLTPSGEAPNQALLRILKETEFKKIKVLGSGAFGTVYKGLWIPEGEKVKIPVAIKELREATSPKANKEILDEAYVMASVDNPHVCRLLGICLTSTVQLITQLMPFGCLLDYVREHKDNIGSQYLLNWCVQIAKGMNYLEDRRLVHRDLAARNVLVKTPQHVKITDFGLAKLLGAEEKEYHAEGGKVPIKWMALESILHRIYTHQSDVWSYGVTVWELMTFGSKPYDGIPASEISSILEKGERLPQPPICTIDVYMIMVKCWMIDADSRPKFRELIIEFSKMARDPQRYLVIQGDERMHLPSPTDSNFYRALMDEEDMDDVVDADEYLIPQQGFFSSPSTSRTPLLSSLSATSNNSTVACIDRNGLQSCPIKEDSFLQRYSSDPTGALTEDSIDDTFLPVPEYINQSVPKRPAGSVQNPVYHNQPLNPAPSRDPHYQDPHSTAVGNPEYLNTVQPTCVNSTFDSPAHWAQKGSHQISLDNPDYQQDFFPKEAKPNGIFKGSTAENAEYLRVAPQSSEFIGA

Structure (SMILES)	IC50 ([1]; insect cells)	IC50 [2]	Ki [2]	IC50 [3]	IC50 [4]	Ki [4]	IC50 (Insulin receptor)	IC50 [5]	IC50 (Caspase-1)	IC50 [6]	IC50 ([1]; read-out: IC50)
O=C(N/N=C/c1ccc([N+](=O)[O-])o1)c1cc([N+](=O)[O-])cc([N+](=O)[O-])c1O [NIFURSOL]	Not Active	Not Active	Not Active	Not Active	Not Active	Not Active	Not Active	Not Active	Not Active	Not Active	
COC(=O)Nc1nc2ccc(C(=O)c3cccs3)cc2[nH]1 [NOCODAZOLE]	Not Active	Not Active	Not Active	Not Active	Not Active	Not Active	Not Active	Not Active	Not Active	Not Active	
C#CC1(O)CC[C@H]2[C@@H]3CCC4=CC(=O)CC[C@@H]4[C@H]3CC[C@@]21CC (stereo not given in full) [NORGESTREL]	Not Active	Not Active	Not Active	Not Active	Not Active	Not Active	Not Active	Not Active	Not Active	Not Active	
COC(=O)Nc1nc2ccc([S+]([O-])c3ccccc3)cc2[nH]1 (stereo not given) [OXFENDAZOLE]	Not Active	Not Active	Not Active	Not Active	Not Active	Not Active	Not Active	Not Active	Not Active	Not Active	
CC(=O)O[C@H]1C(=O)[C@@]2(C)[C@H]([C@H](OC(=O)c3ccccc3)[C@]3(O)C[C@H](OC(=O)[C@H](O)[C@@H](NC(=O)c4ccccc4)c4ccccc4)C(C)=C1C3(C)C)[C@]1(OC(C)=O)CO[C@@H]1C[C@@H]2O [PACLITAXEL]		Not Active	Not Active	Not Active	Not Active	Not Active	Not Active	Not Active	Not Active	Not Active	11.1 µM
C[n+]1ccc(-c2cc[n+](C)cc2)cc1.[Cl-].[Cl-] [PARAQUAT DICHLORIDE]	Not Active	Not Active	Not Active	Not Active	Not Active	Not Active	Not Active	Not Active	Not Active	Not Active	
CC(C)NCC(O)COc1cccc2[nH]ccc12 (stereo not given) [PINDOLOL]	Not Active	Not Active	Not Active	Not Active	Not Active	Not Active	Not Active	Not Active	Not Active	Not Active	
CCn1cc(C(=O)O)c(=O)c2cnc(N3CCCC3)nc21 [PIROMIDIC ACID]	Not Active	Not Active	Not Active	Not Active	Not Active	Not Active	Not Active	Not Active	Not Active	Not Active	
C[n+]1ccccc1/C=N/O.[Cl-] [PRALIDOXIME CHLORIDE]	Not Active	Not Active	Not Active	Not Active	Not Active	Not Active	Not Active	Not Active	Not Active	Not Active	
C[C@]12C=CC(=O)C=C1CC[C@@H]1[C@@H]2[C@@H](O)C[C@@]2(C)[C@H]1CC[C@]2(O)C(=O)CO [PREDNISOLONE]	Not Active	Not Active	Not Active	Not Active	Not Active	Not Active	Not Active	Not Active	Not Active	Not Active	
CC(=O)[C@H]1[C@H](C#N)C[C@H]2[C@@H]3CC=C4C[C@@H](O)CC[C@]4(C)[C@H]3CC[C@@]21C [PREGNENOLONE CARBONITRILE]	Not Active	Not Active	Not Active	Not Active	Not Active	Not Active	Not Active	Not Active	Not Active	Not Active	
CCCN(CCC)S(=O)(=O)c1ccc(C(=O)O)cc1 [PROBENECID]	Not Active	Not Active	Not Active	Not Active	Not Active	Not Active	Not Active	Not Active	Not Active	Not Active	

Source: ChEMBL document CHEMBL1909046, “DrugMatrix in vitro pharmacology data”
